BindingDB's records for doi:10.1016/s0960-894x(99)00094-3 (Cold Spring Harbor Laboratory, 1999)

Legend:
[1] = Compound was evaluated for concentration that caused 50% inhibition of yeast Farnesyltransferase (expressed as a GST fusion protein in Escherichia coli)
[2] = Compound was evaluated for concentration that caused 50% inhibition of bovine Farnesyltransferase

SMILES | IC50 [1] | IC50 [2]
CSCC[C@H](NC(=O)[C@@H]1CC[C@@H]2CC[C@](Cc3ccccc3)(NC(=O)[C@H](CS)NC(=O)OCC3c4ccccc4-c4ccccc43)C(=O)N21)C(=O)O [(S)-2-({(3S,6R,8aR)-6-Benzyl-6-[(R)-2-(9H-fluoren-9-ylmethoxycarbonylamino)-3-mercapto-propionylamino]-5-oxo-octahydro-indolizine-3-carbonyl}-amino)-4-methylsulfanyl-butyric acid] | 5 µM | 
CSCC[C@H](NC(=O)[C@H](Cc1ccccc1)NC[C@@H](NC[C@@H](N)CS)C(C)C)C(=O)O [N-[2(S)-[2(R)-amino-3-mercaptopropylamino]-3-methylbutyl]-Phe-Met-OH] | 0.3 µM | 0.021 µM
CSCCC(NC(=O)[C@@H]1CC[C@@H]2CC[C@](Cc3ccccc3)(NC(=O)[C@@H](N)CS)C(=O)N21)C(=O)O (stereo partly drawn) [(S)-2-{[(3S,6R,8aR)-6-((R)-2-Amino-3-mercapto-propionylamino)-6-benzyl-5-oxo-octahydro-indolizine-3-carbonyl]-amino}-4-methylsulfanyl-butyric acid] |  | > 200 µM
CSCC[C@H](NC(=O)[C@@H]1CC[C@@H]2CCC[C@H](NC(=O)[C@H](N)CS)C(=O)N21)C(=O)O [(S)-2-{[(3S,6S,9aS)-6-((S)-2-Amino-3-mercapto-propionylamino)-5-oxo-octahydro-pyrrolo[1,2-a]azepine-3-carbonyl]-amino}-4-methylsulfanyl-butyric acid] |  | > 200 µM
